The structures appear in SMILES notation.

The source of these data is patent US9624200B2, “Therapeutic piperazines” (DART NEUROSCIENCE (CAYMAN) LTD., priority 2006, dated 2017).

This assay deals with PDE4 from human U-937 cells. In words: PDE4 Inhibition Assay. The class given is biochemical. To be noted: 1 μM cAMP, [3H]-cAMP, read-out: Potency Class (Inhibitory Concentration) in the PDE4 assay. On the procedure:
PDE4 from human U-937 cells was used (see T. J. Torphy, et al., J. Pharmacol. Exp. Ther., 1992, 263, 1195-1205). Test compound at various concentration and/or vehicle was preincubated with 2 μg/ml enzyme in Tris-HCl buffer pH 7.5 for 15 minutes at 25° C. The reaction was initiated by addition of 1 1 μM cAMP and 0.01 1 μM [^3H]-cAMP for another 20 minute incubation period and terminated at 100° C. The resulting [^3H]-AMP was converted to [^3H]-adenosine by addition of snake venom nucleotidase and separated by AG1-X2 resin. An aliquot was removed and counted to determine the amount of [^3H]-adenosine formed. Results were converted to percent inhibition and IC so determined using XLfit from IDBS (ID Business Solutions Ltd., 2 Occam Court, Surrey Research Park, Guildford, Surrey, GU2 7QB UK).
Representative compounds of the present invention were tested and found to have significant PDE4 inhibition in this assay.
For `COc1ccc(N2CCN(C(=O)C3CCC(=O)N3)[C@@H](Cc3ccccc3)C2)cc1OC1CCCC1` (mixture of isomers) [Compound 285, (S)-5-(2-benzyl-4-(3-(cyclopentyloxy)-4-methoxyphenyl)piperazine-1-carbonyl)pyrrolidin-2-one], the IC50 was in the range of 200 to 1000 nM.

Regarding `COc1ccc(N2CCN(C(=O)CCc3cnc[nH]3)[C@@H](Cc3ccccc3)C2)cc1OC1CCCC1` [Compound 239, (S)-1-(2-benzyl-4-(3-(cyclopentyloxy)-4-methoxyphenyl)piperazin-1-yl)-3-(1H-imidazol-5-yl)propan-1-one], the IC50 is > 1000 nM.

Take `COc1ccc(N2CCN(C(=O)Cc3cnc[nH]3)[C@@H](Cc3ccccc3)C2)cc1OC1CCCC1` [Compound 240, (S)-1-(2-benzyl-4-(3-(cyclopentyloxy)-4-methoxyphenyl)piperazin-1-yl)-2-(1H-imidazol-5-yl)ethanone]: the IC50 is < 200 nM.

For `COc1ccc(N2CCN(C(=O)c3c[nH]cn3)[C@@H](Cc3ccccc3)C2)cc1OC1CCCC1` [Compound 241, (S)-(2-benzyl-4-(3-(cyclopentyloxy)-4-methoxyphenyl)piperazin-1-yl)(1H-imidazol-4-yl)methanone], the IC50 was 200 to 1000 nM.

Consider `COc1ccc(N2CCN(CCc3cnc[nH]3)[C@@H](Cc3ccccc3)C2)cc1OC1CCCC1` [Compound 242, (S)-1-(2-(1H-imidazol-5-yl)ethyl)-2-benzyl-4-(3-(cyclopentyloxy)-4-methoxyphenyl)piperazine], for which the IC50 was > 1000 nM.

`COc1ccc(N2CCN(C(=O)C(C)C)[C@@H](Cc3ccccc3)C2)cc1OC1CCCC1` [Compound 243, (S)-1-(2-benzyl-4-(3-(cyclopentyloxy)-4-methoxyphenyl)piperazin-1-yl)-2-methylpropan-1-one]: the IC50 is > 1000 nM.

As to `CCC(=O)N1CCN(c2ccc(OC)c(OC3CCCC3)c2)C[C@@H]1Cc1ccccc1` [Compound 244, (S)-1-(2-benzyl-4-(3-(cyclopentyloxy)-4-methoxyphenyl)piperazin-1-yl)propan-1-one], the IC50 fell in the range of 200 to 1000 nM.

Turning to `COCC(=O)N1CCN(c2ccc(OC)c(OC3CCCC3)c2)C[C@@H]1Cc1ccccc1` [Compound 245, (S)-1-(2-benzyl-4-(3-(cyclopentyloxy)-4-methoxyphenyl)piperazin-1-yl)-2-methoxyethanone], the IC50 lay within 200 to 1000 nM.

For `COc1ccc(N2CCN(C(C)=O)[C@@H](Cc3cccc(C)c3)C2)cc1OC1CCCC1` [Compound 248, (S)-1-(4-(3-(cyclopentyloxy)-4-methoxyphenyl)-2-(3-methylbenzyl)piperazin-1-yl)ethanone], the IC50 was < 200 nM.

As to `COc1ccc(N2CCN(C(C)=O)[C@@H](CN3CCCC3)C2)cc1OC1CCCC1` [Compound 249, (S)-1-(4-(3-(cyclopentyloxy)-4-methoxyphenyl)-2-(pyrrolidin-1-ylmethyl)piperazin-1-yl)ethanone], the IC50 was > 1000 nM.

On to `COc1ccc(N2CCN(C(C)=O)[C@@H](CN3CCOCC3)C2)cc1OC1CCCC1` [Compound 250, (S)-1-(4-(3-(cyclopentyloxy)-4-methoxyphenyl)-2-(morpholinomethyl)piperazin-1-yl)ethanone], for which the IC50 is > 1000 nM.

Regarding `COc1ccc(N2CCN(C(C)=O)[C@@H](CN3Cc4ccccc4C3)C2)cc1OC1CCCC1` [Compound 252, (S)-1-(4-(3-(cyclopentyloxy)-4-methoxyphenyl)-2-(isoindolin-2-ylmethyl)piperazin-1-yl)ethanone], the IC50 was in the range of 200 to 1000 nM.

As to `COc1ccc(N2CCN(C(C)=O)[C@@H](CN3CCc4ccccc4C3)C2)cc1OC1CCCC1` [Compound 253, (S)-1-(4-(3-(cyclopentyloxy)-4-methoxyphenyl)-2-((3,4-dihydroisoquinolin-2(1H)-yl)methyl)piperazin-1-yl)ethanone], the IC50 was < 200 nM.

With `CCOc1ccc(N2CCN(C(C)=O)[C@@H](Cn3cccn3)C2)cc1OC1CCCC1` [Compound 254], the IC50 was > 1000 nM.

In the case of `COc1ccc(N2CCN(C(=O)Cc3n[nH]c(C)n3)[C@@H](CN3CCCC3)C2)cc1OC1CCCC1` [Compound 255, (S)-1-(4-(3-(cyclopentyloxy)-4-methoxyphenyl)-2-(pyrrolidin-1-ylmethyl)piperazin-1-yl)-2-(5-methyl-1H-1,2,4-triazol-3-yl)ethanone], the IC50 was > 1000 nM.

Take `COc1ccc(N2CCN(C(=O)Cc3n[nH]c(C)n3)[C@@H](CN3CCOCC3)C2)cc1OC1CCCC1` [Compound 256, (S)-1-(4-(3-(cyclopentyloxy)-4-methoxyphenyl)-2-(morpholinomethyl)piperazin-1-yl)-2-(5-methyl-1H-1,2,4-triazol-3-yl)ethanone]: the IC50 is < 200 nM.

With `CCOc1ccc(N2CCN(C(=O)Cc3n[nH]c(C)n3)[C@@H](Cn3cccn3)C2)cc1OC1CCCC1` [Compound 257], the IC50 is < 200 nM.

Regarding `COc1ccc(N2CCN(C(=O)CC(=O)O)[C@@H](Cc3ccccc3)C2)cc1OC1CCC1` [Compound 258, (S)-3-(2-benzyl-4-(3-cyclobutoxy-4-methoxyphenyl)piperazin-1-yl)-3-oxopropanoic acid], the IC50 is < 200 nM.

Consider `COc1ccc(N2CCN(C(=O)CC(N)=O)[C@@H](Cc3ccccc3)C2)cc1OC1CCC1` [Compound 261, (S)-3-(2-benzyl-4-(3-cyclobutoxy-4-methoxyphenyl)piperazin-1-yl)-3-oxopropanamide], for which the IC50 was < 200 nM.

On to `NC(=O)CC(=O)N1CCN(c2ccc(OC(F)F)c(OC3CCC3)c2)C[C@@H]1Cc1ccccc1` [Compound 263, (S)-3-(2-benzyl-4-(3-cyclobutoxy-4-(difluoromethoxy)phenyl)piperazin-1-yl)-3-oxopropanamide], for which the IC50 is < 200 nM.

For `CCc1nn(C2CCC2)c2cc(N3CCN(C(=O)CC(N)=O)[C@@H](Cc4ccccc4)C3)ccc12` [Compound 264, (S)-3-(2-benzyl-4-(1-cyclobutyl-3-ethyl-1H-indazol-6-yl)piperazin-1-yl)-3-oxopropanamide], the IC50 was < 200 nM.

Regarding `COc1ccc(N2CCN(CC(=O)O)[C@@H](Cc3ccccc3)C2)cc1OC(C)C` [Compound 266], the IC50 is 200 to 1000 nM.

Take `COc1ccc(N2CCN(CC(N)=O)[C@@H](Cc3ccccc3)C2)cc1OC1CCC1` [Compound 268, (S)-2-(2-benzyl-4-(3-cyclobutoxy-4-methoxyphenyl)piperazin-1-yl)acetamide]: the IC50 was < 200 nM.

Take `COc1ccc(N2CCN(CCC(N)=O)[C@@H](Cc3ccccc3)C2)cc1OC1CCCC1` [Compound 269, (S)-3-(2-benzyl-4-(3-(cyclopentyloxy)-4-methoxyphenyl)piperazin-1-yl)propanamide]: the IC50 was < 200 nM.

In the case of `COc1ccc(N2CCN(CC(N)=O)[C@@H](Cc3ccccc3)C2)cc1OC(F)F` [Compound 271, (S)-2-(2-benzyl-4-(3-(difluoromethoxy)-4-methoxyphenyl)piperazin-1-yl)acetamide], the IC50 lay within 200 to 1000 nM.

With `COc1ccc(N2CCN(CCC(N)=O)[C@@H](Cc3ccccc3)C2)cc1OC(C)C` [Compound 272, (S)-3-(2-benzyl-4-(3-isopropoxy-4-methoxyphenyl)piperazin-1-yl)propanamide], the IC50 was 200 to 1000 nM.

For `NC(=O)CN1CCN(c2ccc(OC(F)F)c(OC3CCC3)c2)C[C@@H]1Cc1ccccc1` [Compound 273, (S)-2-(2-benzyl-4-(3-cyclobutoxy-4-(difluoromethoxy)phenyl)piperazin-1-yl)acetamide], the IC50 is < 200 nM.

As for `COc1ccc(N2CCN(C(=O)CCN)[C@@H](Cc3ccccc3)C2)cc1OC1CCC1` [Compound 274, (S)-3-amino-1-(2-benzyl-4-(3-cyclobutoxy-4-methoxyphenyl)piperazin-1-yl)propan-1-one], the IC50 was > 1000 nM.

Consider `CCc1nn(C2CCC2)c2cc(N3CCN(CC(N)=O)[C@@H](Cc4ccccc4)C3)ccc12` [Compound 275, (S)-2-(2-benzyl-4-(1-cyclobutyl-3-ethyl-1H-indazol-6-yl)piperazin-1-yl)acetamide], for which the IC50 is > 1000 nM.

Turning to `CCc1nn(C2CCC2)c2cc(N3CCN(CCC(N)=O)[C@@H](Cc4ccccc4)C3)ccc12` [Compound 276, (S)-3-(2-benzyl-4-(1-cyclobutyl-3-ethyl-1H-indazol-6-yl)piperazin-1-yl)propanamide], the IC50 was > 1000 nM.

With `COc1ccc(N2CCN(C(=O)[C@H]3C[C@H](O)CN3)[C@@H](Cc3ccccc3)C2)cc1OC1CCCC1` [Compound 278, ((S)-2-benzyl-4-(3-(cyclopentyloxy)-4-methoxyphenyl)piperazin-1-yl)((2R,4S)-4-hydroxypyrrolidin-2-yl)methanone], the IC50 is > 1000 nM.

Take `COc1ccc(N2CCN(C(=O)[C@H]3C[C@@H](O)CN3)[C@@H](Cc3ccccc3)C2)cc1OC1CCCC1` [Compound 279, ((S)-2-benzyl-4-(3-(cyclopentyloxy)-4-methoxyphenyl)piperazin-1-yl)((2R,4R)-4-hydroxypyrrolidin-2-yl)methanone]: the IC50 was > 1000 nM.

Take `COc1ccc(N2CCN(C(=O)C3CNC(=O)N3)[C@@H](Cc3ccccc3)C2)cc1OC1CCCC1` (stereo partly drawn) [Compound 281, 4-((S)-2-benzyl-4-(3-(cyclopentyloxy)-4-methoxyphenyl)piperazine-1-carbonyl)imidazolidin-2-one]: the IC50 is < 200 nM.

Regarding `COc1ccc(N2CCN(C(=O)C(C)(C)O)[C@@H](Cc3ccccc3)C2)cc1OC1CCCC1` [Compound 282, (S)-1-(2-benzyl-4-(3-(cyclopentyloxy)-4-methoxyphenyl)piperazin-1-yl)-2-hydroxy-2-methylpropan-1-one], the IC50 fell in the range of 200 to 1000 nM.
